What all share (format): functional
One assay concerns Escherichia coli. Put plainly: Antibacterial activity against Escherichia coli MTCC 448 after 24 hrs by disk diffusion method.
For the next assay, the system named is Pseudomonas aeruginosa. The assay can be described thus: Antibacterial activity against Pseudomonas aeruginosa MTCC 424 after 24 hrs by disk diffusion method.
The test system of a further assay is Klebsiella pneumoniae. The assay can be described thus: Antibacterial activity against Klebsiella pneumoniae MTCC 618 after 24 hrs by disk diffusion method.
The subject of a further assay is Vibrio sp. The assay can be described thus: Antibacterial activity against Vibrio sp. after 24 hrs by disk diffusion method.
Assay [1] has as its system Staphylococcus epidermidis. The assay can be described thus: Antibacterial activity against Staphylococcus epidermidis MTCC 435 after 24 hrs by disk diffusion method.
The test system of the next assay is Bacillus subtilis. The assay can be described thus: Antibacterial activity against Bacillus subtilis MTCC 441 after 24 hrs by disk diffusion method.

Values after ≈ are worked out from the molar mass of the structure shown.

Turning to `O=S(=O)(Nc1ccc(-c2nc3n(n2)S(=O)(=O)c2ccccc2N3c2ccccc2)cc1)c1ccc(F)cc1`, the MIC in the assay on Escherichia coli was determined as 16 µg/mL (≈ 29.2 µM); against Pseudomonas aeruginosa, 32 µg/mL (≈ 58.4 µM); against Klebsiella pneumoniae, 64 µg/mL (≈ 117 µM); in the assay on Vibrio sp., 32 µg/mL (≈ 58.4 µM); in assay [1] it was 16 µg/mL (≈ 29.2 µM); against Bacillus subtilis, 16 µg/mL (≈ 29.2 µM).
On to `O=S(=O)(Nc1ccc(-c2nc3n(n2)S(=O)(=O)c2ccccc2N3c2ccccc2)cc1)c1ccc(Cl)cc1Cl`, for which the minimum inhibitory concentration (MIC) was 16 µg/mL (≈ 26.7 µM) in the assay with Escherichia coli; 16 µg/mL (≈ 26.7 µM) in the assay with Pseudomonas aeruginosa; 32 µg/mL (≈ 53.5 µM) with Klebsiella pneumoniae; 32 µg/mL (≈ 53.5 µM) against Vibrio sp.; 32 µg/mL (≈ 53.5 µM) in assay [1]; 16 µg/mL (≈ 26.7 µM) with Bacillus subtilis.
For `CC(=O)Nc1ccc(S(=O)(=O)N2CCC(c3nc4n(n3)S(=O)(=O)c3ccccc3N4c3ccccc3)CC2)cc1`, the MIC in the assay on Escherichia coli is 16 µg/mL (≈ 27.6 µM); in the assay with Pseudomonas aeruginosa, 32 µg/mL (≈ 55.3 µM); against Klebsiella pneumoniae, 32 µg/mL (≈ 55.3 µM); against Vibrio sp., 32 µg/mL (≈ 55.3 µM); in assay [1] it was 32 µg/mL (≈ 55.3 µM); with Bacillus subtilis, 16 µg/mL (≈ 27.6 µM).
For `Nc1ccc(S(=O)(=O)Nc2ncccn2)cc1` [SULFADIAZINE], the MIC is 16 µg/mL (≈ 63.9 µM) against Escherichia coli; 32 µg/mL (≈ 128 µM) against Pseudomonas aeruginosa; greater than 64 µg/mL in the assay on Klebsiella pneumoniae; 16 µg/mL (≈ 63.9 µM) with Vibrio sp.; 32 µg/mL (≈ 128 µM) in assay [1]; 16 µg/mL (≈ 63.9 µM) in the assay with Bacillus subtilis.
For `Nc1ccc(S(N)(=O)=O)cc1` [SULFANILAMIDE], the MIC in the assay with Escherichia coli is greater than 128 µg/mL; with Pseudomonas aeruginosa, greater than 512 µg/mL; against Klebsiella pneumoniae it was greater than 64 µg/mL; against Vibrio sp., greater than 512 µg/mL; in assay [1], greater than 512 µg/mL; against Bacillus subtilis, greater than 128 µg/mL.
For the compound `Cc1ccc(S(=O)(=O)N2CCC(c3nc4n(n3)S(=O)(=O)c3ccccc3N4C)CC2)cc1`, the minimum inhibitory concentration (MIC) against Escherichia coli was 16 µg/mL (≈ 33.8 µM); against Pseudomonas aeruginosa it was 64 µg/mL (≈ 135 µM); in the assay on Klebsiella pneumoniae, 64 µg/mL (≈ 135 µM); against Vibrio sp., 32 µg/mL (≈ 67.6 µM); in assay [1] it was 32 µg/mL (≈ 67.6 µM); with Bacillus subtilis, 16 µg/mL (≈ 33.8 µM).
With `CN1c2ccccc2S(=O)(=O)n2nc(C3CCN(S(=O)(=O)c4ccccc4)CC3)nc21`, the MIC was determined as 8 µg/mL (≈ 17.4 µM) in the assay on Escherichia coli; 64 µg/mL (≈ 139 µM) in the assay with Pseudomonas aeruginosa; 32 µg/mL (≈ 69.6 µM) with Klebsiella pneumoniae; 32 µg/mL (≈ 69.6 µM) with Vibrio sp.; 32 µg/mL (≈ 69.6 µM) in assay [1]; 16 µg/mL (≈ 34.8 µM) in the assay with Bacillus subtilis.
Turning to `CC(=O)Nc1ccc(S(=O)(=O)Nc2ccc(-c3nc4n(n3)S(=O)(=O)c3ccccc3N4c3ccccc3)cc2)cc1`, the MIC against Escherichia coli was 8 µg/mL (≈ 13.6 µM); against Pseudomonas aeruginosa, 32 µg/mL (≈ 54.5 µM); in the assay with Klebsiella pneumoniae it was 16 µg/mL (≈ 27.3 µM); with Vibrio sp., 32 µg/mL (≈ 54.5 µM); in assay [1], 32 µg/mL (≈ 54.5 µM); with Bacillus subtilis, 8 µg/mL (≈ 13.6 µM).
With `CC(=O)Nc1ccc(S(=O)(=O)Nc2ccc(-c3nc4n(n3)S(=O)(=O)c3ccccc3N4C)cc2)cc1`, the MIC in the assay on Escherichia coli was found to be 16 µg/mL (≈ 30.5 µM); against Pseudomonas aeruginosa, 32 µg/mL (≈ 61 µM); in the assay with Klebsiella pneumoniae, 32 µg/mL (≈ 61 µM); in the assay with Vibrio sp., 32 µg/mL (≈ 61 µM); in assay [1], 32 µg/mL (≈ 61 µM); in the assay with Bacillus subtilis it was 16 µg/mL (≈ 30.5 µM).
In the case of `O=S(=O)(c1ccccc1)N1CCC(c2nc3n(n2)S(=O)(=O)c2ccccc2N3c2ccccc2)CC1`, the minimal inhibitory concentration (MIC) with Escherichia coli turned out to be 16 µg/mL (≈ 30.7 µM); against Pseudomonas aeruginosa it was 16 µg/mL (≈ 30.7 µM); in the assay with Klebsiella pneumoniae it was 32 µg/mL (≈ 61.3 µM); in the assay on Vibrio sp., 32 µg/mL (≈ 61.3 µM); in assay [1] it was 32 µg/mL (≈ 61.3 µM); against Bacillus subtilis, 16 µg/mL (≈ 30.7 µM).
`Cc1ccc(S(=O)(=O)Nc2ccc(-c3nc4n(n3)S(=O)(=O)c3ccccc3N4c3ccccc3)cc2)cc1`: the minimal inhibitory concentration (MIC) with Escherichia coli stood at 16 µg/mL (≈ 29.4 µM); in the assay with Pseudomonas aeruginosa, 32 µg/mL (≈ 58.9 µM); with Klebsiella pneumoniae, 32 µg/mL (≈ 58.9 µM); against Vibrio sp., 32 µg/mL (≈ 58.9 µM); in assay [1], 32 µg/mL (≈ 58.9 µM); in the assay on Bacillus subtilis, 8 µg/mL (≈ 14.7 µM).
As to `CC(=O)Nc1ccc(S(=O)(=O)N2CCC(c3nc4n(n3)S(=O)(=O)c3ccccc3N4C)CC2)cc1`, the MIC with Escherichia coli came to 8 µg/mL (≈ 15.5 µM); with Pseudomonas aeruginosa it was 32 µg/mL (≈ 61.9 µM); against Klebsiella pneumoniae, 32 µg/mL (≈ 61.9 µM); against Vibrio sp. it was 16 µg/mL (≈ 31 µM); in assay [1], 32 µg/mL (≈ 61.9 µM); against Bacillus subtilis it was 32 µg/mL (≈ 61.9 µM).
On to `CN1c2ccccc2S(=O)(=O)n2nc(C3CCN(S(=O)(=O)c4ccc(F)cc4)CC3)nc21`, for which the MIC amounted to 16 µg/mL (≈ 33.5 µM) against Escherichia coli; 32 µg/mL (≈ 67 µM) against Pseudomonas aeruginosa; 16 µg/mL (≈ 33.5 µM) against Klebsiella pneumoniae; 32 µg/mL (≈ 67 µM) against Vibrio sp.; 32 µg/mL (≈ 67 µM) in assay [1]; 32 µg/mL (≈ 67 µM) in the assay on Bacillus subtilis.
On to `CN1c2ccccc2S(=O)(=O)n2nc(C3CCN(S(=O)(=O)c4ccc(Cl)cc4Cl)CC3)nc21`, for which the MIC against Escherichia coli is 16 µg/mL (≈ 30.3 µM); in the assay with Pseudomonas aeruginosa, 64 µg/mL (≈ 121 µM); in the assay on Klebsiella pneumoniae it was 16 µg/mL (≈ 30.3 µM); in the assay with Vibrio sp., 32 µg/mL (≈ 60.6 µM); in assay [1], 16 µg/mL (≈ 30.3 µM); against Bacillus subtilis, 16 µg/mL (≈ 30.3 µM).
Take `O=S(=O)(c1ccc(F)cc1)N1CCC(c2nc3n(n2)S(=O)(=O)c2ccccc2N3c2ccccc2)CC1`: the MIC in the assay on Escherichia coli stood at 16 µg/mL (≈ 29.7 µM); in the assay with Pseudomonas aeruginosa, 32 µg/mL (≈ 59.3 µM); against Klebsiella pneumoniae it was 32 µg/mL (≈ 59.3 µM); against Vibrio sp. it was 16 µg/mL (≈ 29.7 µM); in assay [1], 32 µg/mL (≈ 59.3 µM); in the assay on Bacillus subtilis, 16 µg/mL (≈ 29.7 µM).
As to `O=S(=O)(c1ccc(Cl)cc1Cl)N1CCC(c2nc3n(n2)S(=O)(=O)c2ccccc2N3c2ccccc2)CC1`, the MIC against Escherichia coli is 16 µg/mL (≈ 27.1 µM); in the assay on Pseudomonas aeruginosa, 32 µg/mL (≈ 54.2 µM); in the assay on Klebsiella pneumoniae it was 32 µg/mL (≈ 54.2 µM); against Vibrio sp. it was 16 µg/mL (≈ 27.1 µM); in assay [1], 32 µg/mL (≈ 54.2 µM); against Bacillus subtilis it was 16 µg/mL (≈ 27.1 µM).
With `Cc1ccc(S(=O)(=O)N2CCC(c3nc4n(n3)S(=O)(=O)c3ccccc3N4c3ccccc3)CC2)cc1`, the MIC against Escherichia coli was 16 µg/mL (≈ 29.9 µM); with Pseudomonas aeruginosa it was 32 µg/mL (≈ 59.7 µM); against Klebsiella pneumoniae it was 16 µg/mL (≈ 29.9 µM); against Vibrio sp., 32 µg/mL (≈ 59.7 µM); in assay [1], 32 µg/mL (≈ 59.7 µM); against Bacillus subtilis it was 16 µg/mL (≈ 29.9 µM).
In the case of `O=S(=O)(Nc1ccc(-c2nc3n(n2)S(=O)(=O)c2ccccc2N3c2ccccc2)cc1)c1ccccc1`, the minimal inhibitory concentration (MIC) is 16 µg/mL (≈ 30.2 µM) in the assay on Escherichia coli; 32 µg/mL (≈ 60.4 µM) in the assay with Pseudomonas aeruginosa; 32 µg/mL (≈ 60.4 µM) with Klebsiella pneumoniae; 32 µg/mL (≈ 60.4 µM) in the assay with Vibrio sp.; 32 µg/mL (≈ 60.4 µM) in assay [1]; 8 µg/mL (≈ 15.1 µM) against Bacillus subtilis.

The values above are taken from ChEMBL document CHEMBL1139793, “Synthesis, structure analysis, and antibacterial activity of some novel 10-substituted 2-(4-piperidyl/phenyl)-5,5-dioxo[1,2,4]triazolo[1,5-b][1,2,4]benzothiadiazine derivatives” (2007).
